The values below come from ChEMBL document CHEMBL5696442, “Discovery of type II inhibitors of TGFβ-activated kinase 1 (TAK1) and mitogen-activated protein kinase kinase kinase kinase 2 (MAP4K2)” (J Med Chem, 2015).

The source made the active and inactive calls. No cut-off for these calls is given here.

Assay [1] has as its target Tyrosine-protein kinase BTK (Homo sapiens) (UniProt Q06187). Description: Inhibition of BTK (unknown origin) at 1 uM by Ambit Kinomescan binding assay relative to control.
Assay [2] addresses Cyclin-dependent kinase 5 (Homo sapiens) (UniProt Q00535). In words: Inhibition of CDK5 Lys1 labeling site in human A-375 cells at 0.5 uM by KiNativ Profiling analysis relative to control. The class given is cell-based.
Assay [3] deals with Tyrosine-protein kinase ABL1 (Homo sapiens), P00519 [H396P]. Description: Inhibition of nonphosphorylated ABL1 H396P mutant (unknown origin) at 1 uM by Ambit Kinomescan binding assay relative to control.
The target of assay [4] is Serine/threonine-protein kinase OSR1 (Homo sapiens) (UniProt O95747). Description: Inhibition of OSR1 (unknown origin) at 1 uM by Ambit Kinomescan binding assay relative to control; values are per cent of control.
Assay [5] deals with Tyrosine-protein kinase ABL1 (Homo sapiens), P00519 [H396P]. Description: Inhibition of phosphorylated ABL1 H396P mutant (unknown origin) at 1 uM by Ambit Kinomescan binding assay relative to control; values are per cent of control.
Assay [6] has as its target Receptor-type tyrosine-protein kinase FLT3 (Homo sapiens) (UniProt P36888). In words: Inhibition of FLT3 (unknown origin) at 1 uM by Ambit Kinomescan binding assay relative to control; values are per cent of control.
The target of assay [7] is Cyclin-dependent kinase 9 (Homo sapiens) (UniProt P50750). In words: Inhibition of CDK9 Lys2 labeling site in human A-375 cells at 0.5 uM by KiNativ Profiling analysis relative to control. The class given is cell-based.
The target in assay [8] is Serine/threonine-protein kinase 32A (Homo sapiens) (UniProt Q8WU08). Description: Inhibition of YANK1 (unknown origin) at 1 uM by Ambit Kinomescan binding assay relative to control; values are per cent of control.
Assay [9] addresses Interferon-induced, double-stranded RNA-activated protein kinase (Homo sapiens) (UniProt P19525). Description: Inhibition of PKR K2 labeling site in human Huh-7 cells at 10 uM by KiNativ Profiling analysis relative to control. In kind it is cell-based.
In assay [10] the target is T1, NUAK family SNF1-like kinase 1 (Homo sapiens) (UniProt O60285).
T1 sequence (whole entry): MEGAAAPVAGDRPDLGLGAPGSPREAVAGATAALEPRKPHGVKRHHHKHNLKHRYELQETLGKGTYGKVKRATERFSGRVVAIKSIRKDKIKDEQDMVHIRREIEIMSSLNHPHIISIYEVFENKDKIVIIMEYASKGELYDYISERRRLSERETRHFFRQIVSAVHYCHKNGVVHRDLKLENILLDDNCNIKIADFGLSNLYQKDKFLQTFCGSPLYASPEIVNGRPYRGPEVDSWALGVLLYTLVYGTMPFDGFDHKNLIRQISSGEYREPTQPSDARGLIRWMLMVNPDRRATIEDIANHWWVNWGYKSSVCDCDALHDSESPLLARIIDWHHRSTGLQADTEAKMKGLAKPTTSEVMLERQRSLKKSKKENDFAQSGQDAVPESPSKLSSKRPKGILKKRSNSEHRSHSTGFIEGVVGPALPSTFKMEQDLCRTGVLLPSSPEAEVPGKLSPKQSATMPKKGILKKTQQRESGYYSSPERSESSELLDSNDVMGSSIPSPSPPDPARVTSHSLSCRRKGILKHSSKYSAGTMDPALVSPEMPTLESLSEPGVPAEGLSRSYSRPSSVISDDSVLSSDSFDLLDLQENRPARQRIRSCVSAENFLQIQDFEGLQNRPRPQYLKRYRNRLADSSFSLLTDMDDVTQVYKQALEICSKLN
Description: Inhibition of ARK5 (unknown origin) at 10 uM by Ambit Kinomescan binding assay.

The target of assay [11] is Serine/threonine-protein kinase N2 (Homo sapiens) (UniProt Q16513). In words: Inhibition of PKN2 K2 labeling site in human Huh-7 cells at 1 uM by KiNativ Profiling analysis relative to control. The class given is cell-based.
In assay [12] the target is Serine/threonine-protein kinase 32C (Homo sapiens) (UniProt Q86UX6). Description: Inhibition of YANK3 K2 labeling site in human Huh-7 cells at 10 uM by KiNativ Profiling analysis relative to control. The class given is cell-based.
Assay [13] concerns the target T2, Tyrosine-protein kinase CSK (Homo sapiens, UniProt P41240). In words: Inhibition of CSK ACT labeling site harbouring VSDFGLTKEASSTQDTGKLPVK in human Huh-7 cells at 1 uM by KiNativ Profiling analysis relative to control. The class given is cell-based.
The test system of assay [14] is Receptor-type tyrosine-protein kinase FLT3 (Homo sapiens), P36888 [K663Q]. Description: Inhibition of FLT3 K663Q mutant (unknown origin) at 10 uM by Ambit Kinomescan binding assay relative to control.
For assay [15], the target named is T2, Tyrosine-protein kinase CSK. In words: Inhibition of CSK ACT labeling site harbouring VSDFGLTKEASSTQDTGKLPVKWTAPEALR in human Huh-7 cells at 10 uM by KiNativ Profiling analysis relative to control. In kind it is cell-based.
The target of assay [16] is Tyrosine-protein kinase JAK1 (Homo sapiens) (UniProt P23458). In words: Inhibition of JAK1 domain2 Lys1 labeling site in human A-375 cells at 0.5 uM by KiNativ Profiling analysis relative to control. The class given is cell-based.
Assay [17] deals with Ribosomal protein S6 kinase alpha-3 (Homo sapiens) (UniProt P51812). Description: Inhibition of RSK2 domain2 Lys1 labeling site in human Huh-7 cells at 1 uM by KiNativ Profiling analysis relative to control. In kind it is cell-based.
Assay [18] concerns the target Mitogen-activated protein kinase 9 (Homo sapiens, UniProt P45984). Description: Inhibition of JNK2 Lys2 labeling site in human Huh-7 cells at 1 uM by KiNativ Profiling analysis relative to control. In kind it is cell-based.
For assay [19], the target named is Serine/threonine-protein kinase MARK2 (Homo sapiens) (UniProt Q7KZI7). In words: Inhibition of MARK2 Lys1 labeling site harbouring HILTGKEVAVKIIDKTQLNSSSLQK in human Huh-7 cells at 1 uM by KiNativ Profiling analysis relative to control. The class given is cell-based.
Assay [20] concerns the target T3, Dual specificity mitogen-activated protein kinase kinase 3 (Homo sapiens) (UniProt P46734).
T3 sequence (whole entry): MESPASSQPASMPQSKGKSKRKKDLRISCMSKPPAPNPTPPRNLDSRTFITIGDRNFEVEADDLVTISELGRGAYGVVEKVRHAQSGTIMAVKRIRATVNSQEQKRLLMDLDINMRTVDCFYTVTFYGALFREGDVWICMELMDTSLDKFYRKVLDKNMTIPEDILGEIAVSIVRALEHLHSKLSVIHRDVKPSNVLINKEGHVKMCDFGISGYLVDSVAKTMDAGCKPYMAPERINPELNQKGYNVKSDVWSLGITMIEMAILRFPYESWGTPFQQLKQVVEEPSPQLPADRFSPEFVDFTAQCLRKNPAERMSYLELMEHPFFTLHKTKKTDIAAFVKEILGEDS
Description: Inhibition of MAP2K3 ACT labeling site in human Huh-7 cell lysate at 1 uM by KiNativ Profiling analysis relative to control. In kind it is subcellular.

T2 sequence (P41240 2-450 limits assumed): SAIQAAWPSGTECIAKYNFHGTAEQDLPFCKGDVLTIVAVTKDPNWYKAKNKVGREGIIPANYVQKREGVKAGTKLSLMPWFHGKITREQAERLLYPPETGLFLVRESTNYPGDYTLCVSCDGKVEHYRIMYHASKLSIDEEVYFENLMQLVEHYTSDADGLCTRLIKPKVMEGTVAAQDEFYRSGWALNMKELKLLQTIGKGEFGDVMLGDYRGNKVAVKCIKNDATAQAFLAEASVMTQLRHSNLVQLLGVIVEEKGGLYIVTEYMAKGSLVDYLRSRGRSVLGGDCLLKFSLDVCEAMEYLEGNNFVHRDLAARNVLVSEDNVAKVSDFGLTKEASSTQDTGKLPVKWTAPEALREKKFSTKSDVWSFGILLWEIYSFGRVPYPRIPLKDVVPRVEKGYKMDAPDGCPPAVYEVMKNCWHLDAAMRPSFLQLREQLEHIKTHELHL
Chain of Interferon-induced, double-stranded RNA-activated protein kinase (Homo sapiens) (P19525 whole entry): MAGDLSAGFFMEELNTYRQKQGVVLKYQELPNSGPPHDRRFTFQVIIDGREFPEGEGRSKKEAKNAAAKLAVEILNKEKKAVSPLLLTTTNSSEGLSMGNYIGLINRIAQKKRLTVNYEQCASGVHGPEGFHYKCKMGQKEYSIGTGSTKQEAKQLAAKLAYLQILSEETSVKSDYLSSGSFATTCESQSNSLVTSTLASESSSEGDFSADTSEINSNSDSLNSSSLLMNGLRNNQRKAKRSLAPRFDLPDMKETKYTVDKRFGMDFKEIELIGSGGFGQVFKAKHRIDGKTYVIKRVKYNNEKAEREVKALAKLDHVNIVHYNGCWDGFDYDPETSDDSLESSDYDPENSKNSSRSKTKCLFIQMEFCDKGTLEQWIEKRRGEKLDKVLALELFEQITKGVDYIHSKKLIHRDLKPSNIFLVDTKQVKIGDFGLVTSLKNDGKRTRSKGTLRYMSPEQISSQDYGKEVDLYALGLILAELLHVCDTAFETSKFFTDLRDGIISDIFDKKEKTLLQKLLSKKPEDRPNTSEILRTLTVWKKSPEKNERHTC
Chain of Ribosomal protein S6 kinase alpha-3 (Homo sapiens) (P51812 whole entry, the tested form may be a part): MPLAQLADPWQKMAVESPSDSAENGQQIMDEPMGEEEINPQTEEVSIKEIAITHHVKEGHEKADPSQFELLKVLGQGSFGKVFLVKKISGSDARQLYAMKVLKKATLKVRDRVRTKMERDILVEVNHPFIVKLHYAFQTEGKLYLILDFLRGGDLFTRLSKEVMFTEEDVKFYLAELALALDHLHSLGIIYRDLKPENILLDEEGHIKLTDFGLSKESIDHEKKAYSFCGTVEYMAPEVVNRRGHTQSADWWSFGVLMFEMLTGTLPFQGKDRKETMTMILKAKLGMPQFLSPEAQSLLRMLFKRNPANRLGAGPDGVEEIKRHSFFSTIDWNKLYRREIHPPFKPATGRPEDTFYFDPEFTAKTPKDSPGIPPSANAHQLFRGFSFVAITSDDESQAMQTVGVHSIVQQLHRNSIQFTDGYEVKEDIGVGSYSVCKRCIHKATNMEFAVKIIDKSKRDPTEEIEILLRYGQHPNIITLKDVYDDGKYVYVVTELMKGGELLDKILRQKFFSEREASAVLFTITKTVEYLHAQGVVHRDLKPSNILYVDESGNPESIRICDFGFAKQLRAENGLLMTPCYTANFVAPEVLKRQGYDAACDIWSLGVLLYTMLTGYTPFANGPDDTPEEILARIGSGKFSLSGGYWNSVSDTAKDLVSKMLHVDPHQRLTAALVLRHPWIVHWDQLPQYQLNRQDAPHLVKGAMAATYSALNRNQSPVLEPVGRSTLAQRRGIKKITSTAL
Chain of Serine/threonine-protein kinase OSR1 (Homo sapiens) (O95747 whole entry, looked up): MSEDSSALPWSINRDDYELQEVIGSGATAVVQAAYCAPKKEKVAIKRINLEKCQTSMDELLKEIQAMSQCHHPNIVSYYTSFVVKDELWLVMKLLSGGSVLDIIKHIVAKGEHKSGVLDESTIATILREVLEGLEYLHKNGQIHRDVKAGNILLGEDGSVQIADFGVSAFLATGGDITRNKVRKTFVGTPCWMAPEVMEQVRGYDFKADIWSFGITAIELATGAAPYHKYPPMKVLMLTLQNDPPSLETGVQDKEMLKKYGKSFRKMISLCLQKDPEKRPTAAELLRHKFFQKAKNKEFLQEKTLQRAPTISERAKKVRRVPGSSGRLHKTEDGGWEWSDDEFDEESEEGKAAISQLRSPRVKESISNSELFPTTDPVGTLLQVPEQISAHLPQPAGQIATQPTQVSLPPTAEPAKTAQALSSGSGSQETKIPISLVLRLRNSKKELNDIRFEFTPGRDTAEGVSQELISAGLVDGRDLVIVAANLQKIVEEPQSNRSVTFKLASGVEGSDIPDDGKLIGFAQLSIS
Chain of Serine/threonine-protein kinase 32A (Homo sapiens) (Q8WU08 whole entry): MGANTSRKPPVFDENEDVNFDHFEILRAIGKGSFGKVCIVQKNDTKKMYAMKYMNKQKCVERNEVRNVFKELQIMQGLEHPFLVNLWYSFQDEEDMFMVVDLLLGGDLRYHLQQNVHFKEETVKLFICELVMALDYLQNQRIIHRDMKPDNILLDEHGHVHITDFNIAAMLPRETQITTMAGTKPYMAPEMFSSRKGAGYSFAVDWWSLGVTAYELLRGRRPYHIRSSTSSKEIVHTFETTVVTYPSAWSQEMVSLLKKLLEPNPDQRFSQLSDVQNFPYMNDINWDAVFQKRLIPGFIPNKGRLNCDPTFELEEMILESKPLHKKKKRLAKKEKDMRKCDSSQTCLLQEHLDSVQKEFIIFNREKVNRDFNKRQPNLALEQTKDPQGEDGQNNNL
Chain of Tyrosine-protein kinase JAK1 (Homo sapiens) (P23458 whole entry, the tested form may be a part): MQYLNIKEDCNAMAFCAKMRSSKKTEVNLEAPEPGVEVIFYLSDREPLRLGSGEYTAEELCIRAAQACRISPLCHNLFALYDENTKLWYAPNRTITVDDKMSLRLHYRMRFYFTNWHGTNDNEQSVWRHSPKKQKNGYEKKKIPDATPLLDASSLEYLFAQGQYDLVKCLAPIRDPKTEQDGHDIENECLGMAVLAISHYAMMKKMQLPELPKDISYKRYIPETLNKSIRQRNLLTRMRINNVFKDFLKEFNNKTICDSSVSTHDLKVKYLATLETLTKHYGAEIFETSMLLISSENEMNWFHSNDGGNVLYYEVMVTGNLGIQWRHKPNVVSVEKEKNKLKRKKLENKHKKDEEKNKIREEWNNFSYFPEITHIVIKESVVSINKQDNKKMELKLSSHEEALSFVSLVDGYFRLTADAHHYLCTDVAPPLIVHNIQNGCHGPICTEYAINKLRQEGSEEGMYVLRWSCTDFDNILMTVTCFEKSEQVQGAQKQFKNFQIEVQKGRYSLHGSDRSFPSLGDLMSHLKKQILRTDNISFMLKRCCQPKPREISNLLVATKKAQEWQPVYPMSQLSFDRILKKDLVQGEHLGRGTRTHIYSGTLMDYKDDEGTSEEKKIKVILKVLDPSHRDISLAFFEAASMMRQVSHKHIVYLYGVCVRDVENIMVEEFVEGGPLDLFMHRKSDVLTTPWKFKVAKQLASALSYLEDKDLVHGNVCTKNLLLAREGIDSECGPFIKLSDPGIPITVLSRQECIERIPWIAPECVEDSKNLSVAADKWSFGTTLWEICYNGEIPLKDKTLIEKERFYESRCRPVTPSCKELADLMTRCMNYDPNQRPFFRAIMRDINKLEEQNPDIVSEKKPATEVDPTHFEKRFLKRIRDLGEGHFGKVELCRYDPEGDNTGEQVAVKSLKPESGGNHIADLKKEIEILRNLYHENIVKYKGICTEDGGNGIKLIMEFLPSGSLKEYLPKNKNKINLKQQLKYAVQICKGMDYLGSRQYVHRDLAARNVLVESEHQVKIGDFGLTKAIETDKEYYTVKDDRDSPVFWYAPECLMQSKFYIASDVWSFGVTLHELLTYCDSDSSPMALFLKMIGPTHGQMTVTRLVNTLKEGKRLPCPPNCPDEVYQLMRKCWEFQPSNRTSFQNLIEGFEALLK
Chain of Mitogen-activated protein kinase 9 (P45984 whole entry, looked up): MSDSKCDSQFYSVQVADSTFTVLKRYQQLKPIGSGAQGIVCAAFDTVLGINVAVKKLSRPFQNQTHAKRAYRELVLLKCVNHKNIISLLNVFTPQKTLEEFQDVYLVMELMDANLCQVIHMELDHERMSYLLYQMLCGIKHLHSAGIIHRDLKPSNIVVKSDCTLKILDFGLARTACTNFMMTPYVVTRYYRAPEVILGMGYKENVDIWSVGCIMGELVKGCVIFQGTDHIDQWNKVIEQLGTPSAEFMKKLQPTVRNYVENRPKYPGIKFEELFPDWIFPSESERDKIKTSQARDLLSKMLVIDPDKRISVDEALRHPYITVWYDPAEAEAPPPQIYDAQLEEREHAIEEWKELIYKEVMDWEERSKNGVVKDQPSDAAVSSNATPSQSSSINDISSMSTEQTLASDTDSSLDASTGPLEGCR
Chain of Serine/threonine-protein kinase MARK2 (Homo sapiens) (Q7KZI7 whole entry): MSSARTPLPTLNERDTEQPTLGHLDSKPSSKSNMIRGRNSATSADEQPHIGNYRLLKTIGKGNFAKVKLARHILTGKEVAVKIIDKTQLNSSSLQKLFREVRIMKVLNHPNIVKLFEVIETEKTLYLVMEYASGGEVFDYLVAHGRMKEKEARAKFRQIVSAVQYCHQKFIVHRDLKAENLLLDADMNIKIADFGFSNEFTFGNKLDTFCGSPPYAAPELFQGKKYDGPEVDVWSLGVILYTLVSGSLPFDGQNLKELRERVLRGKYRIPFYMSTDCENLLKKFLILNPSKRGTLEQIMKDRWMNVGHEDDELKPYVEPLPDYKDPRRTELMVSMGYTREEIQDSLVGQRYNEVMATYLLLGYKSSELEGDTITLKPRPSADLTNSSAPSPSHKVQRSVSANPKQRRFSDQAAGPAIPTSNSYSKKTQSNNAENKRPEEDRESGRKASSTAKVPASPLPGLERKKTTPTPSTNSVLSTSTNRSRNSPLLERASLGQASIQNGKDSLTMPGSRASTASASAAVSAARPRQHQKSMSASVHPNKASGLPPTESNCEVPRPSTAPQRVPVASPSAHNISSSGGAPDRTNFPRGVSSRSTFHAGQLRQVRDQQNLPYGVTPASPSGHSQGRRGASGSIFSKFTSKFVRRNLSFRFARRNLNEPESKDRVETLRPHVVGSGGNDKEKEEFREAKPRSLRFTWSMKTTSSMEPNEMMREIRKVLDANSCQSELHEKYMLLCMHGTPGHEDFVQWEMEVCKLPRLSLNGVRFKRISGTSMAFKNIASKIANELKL

As to `CCN1CCN(Cc2ccc(NC(=O)c3ccc(C)c(/C=C/c4cnc5[nH]ccc5c4OC)c3)cc2C(F)(F)F)CC1`, the inhibition in assay [1] was 10%; in assay [2], -4.1%; in assay [3] it was 0%; in assay [7], 1.5%. Moreover, the results for the residual activity in assay [4] and in assay [6] were 100% and 0.15%, respectively. Also, the percent of control was found to be 0.8% in assay [5] and 100% in assay [8].
For `CCN1CCN(Cc2ccc(NC(=O)c3ccc(C)c(Oc4ccnc5[nH]ccc45)c3)cc2C(F)(F)F)CC1`, the inhibition is 7.9% in [9]; -6.3% in [11]; 2.5% in assay [12]; 2.4% in assay [13]; 0% in assay [14]; -2.7% in [15]. Also, the inhibition in assay [16] was 30.1%. Also, the inhibition entry in assay [10] was “inactive”.
For the molecule `CNc1cc(Oc2cc(C(=O)Nc3cc(N4CCN(C)CC4)cc(C(F)(F)F)c3)ccc2C)ncn1`, the inhibition was 4.1% in [17], 14.5% in assay [18], -0.2% in [19] and 0.6% in assay [20].

A word on the inhibition: it is the change of the read-out against control, counted positive when it falls. Usually residual activity stands for the signal under treatment as a percentage of the control signal. A higher residual activity goes with a small loss of activity.
